Assay results reported in ChEMBL document CHEMBL1201861, “Genomics of Drug Sensitity in Cancer screening data, Wellcome Trust Sanger Institute”.

Legend:
Type in all cases: functional, cell-based
NCI-H2107 = experiment: SANGER: Inhibition of human NCI-H2107 cell growth in a cell viability assay.
CRO-AP2 = experiment: SANGER: Inhibition of human CRO-AP2 cell growth in a cell viability assay.
EFE-184 = experiment: cells; conditions: Homo sapiens
Description: SANGER: Inhibition of human EFE-184 cell growth in a cell viability assay.

COLO 205 = experiment: cells; conditions: Homo sapiens
Description: SANGER: Inhibition of human COLO-205 cell growth in a cell viability assay.

C-4-II = experiment: SANGER: Inhibition of human C-4-II cell growth in a cell viability assay.
MDA-MB-468 = experiment: cells; conditions: Homo sapiens
Description: SANGER: Inhibition of human MDA-MB-468 cell growth in a cell viability assay.

Calu-1 = experiment: SANGER: Inhibition of human Calu-1 cell growth in a cell viability assay.
CP67-MEL = experiment: SANGER: Inhibition of human CP67-MEL cell growth in a cell viability assay.
KP-N-RT-BM-1 = experiment: SANGER: Inhibition of human KP-N-RT-BM-1 cell growth in a cell viability assay.
NCI-H1975 = experiment: cells; conditions: Homo sapiens
Description: SANGER: Inhibition of human NCI-H1975 cell growth in a cell viability assay.

NCI-H250 = experiment: SANGER: Inhibition of human NCI-H250 cell growth in a cell viability assay.
NCI-H378 = experiment: SANGER: Inhibition of human NCI-H378 cell growth in a cell viability assay.
TC-YIK = experiment: SANGER: Inhibition of human TC-YIK cell growth in a cell viability assay.
Caov-4 = experiment: cells; conditions: Homo sapiens
Description: SANGER: Inhibition of human Caov-4 cell growth in a cell viability assay.

SK-MEL-5 = experiment: SANGER: Inhibition of human SK-MEL-5 cell growth in a cell viability assay.
SK-MG-1 = experiment: SANGER: Inhibition of human SK-MG-1 cell growth in a cell viability assay.

| SMILES | IC50 (NCI-H2107) [µM] | IC50 (EFE-184) [µM] | IC50 (COLO 205) [µM] | IC50 (C-4-II) [µM] | IC50 (MDA-MB-468) [µM] | IC50 (Calu-1) [µM] | other results |
| --- | --- | --- | --- | --- | --- | --- | --- |
| CCc1nc(N)nc(N)c1-c1ccc(Cl)cc1 [PYRIMETHAMINE] | > 20 |  |  |  |  |  | IC50 (CRO-AP2): 18.7 µM |
| C=CCc1cccc(/C=N/NC(=O)CN2CCN(Cc3ccccc3)CC2)c1O [PAC-1] |  | > 2.56 | > 2.56 | > 2.56 | > 2.56 | > 2.56 |  |
| O=C(/C=C/c1ccccc1)NC(NC(=S)Nc1cccc2cccnc12)C(Cl)(Cl)Cl (stereo not given) [SALUBRINAL] | > 16 |  |  |  |  |  |  |
| Cc1ccc(Nc2nccc(N(C)c3ccc4c(C)n(C)nc4c3)n2)cc1S(N)(=O)=O [PAZOPANIB] |  | > 8 | > 8 | > 8 | > 8 | > 8 |  |
| C[C@]1(O)C[C@@H](c2nc(-c3ccc4ccc(-c5ccccc5)nc4c3)c3c(N)nccn32)C1 [LINSITINIB] |  | > 2.56 | 0.105 | > 2.56 | > 2.56 | > 2.56 |  |
| Cc1cc(Nc2cc(N3CCN(C)CC3)nc(Sc3ccc(NC(=O)C4CC4)cc3)n2)n[nH]1 [TOZASERTIB] | > 2 |  |  |  |  |  | IC50 (CP67-MEL): > 2 µM; IC50 (KP-N-RT-BM-1): > 2 µM |
| CN1CCN(CCOc2cc(OC3CCOCC3)c3c(Nc4c(Cl)ccc5c4OCO5)ncnc3c2)CC1 [SARACATINIB] | > 2 |  |  |  |  |  | IC50 (CRO-AP2): > 2 µM; IC50 (CP67-MEL): > 2 µM; IC50 (KP-N-RT-BM-1): > 2 µM |
| Cn1cc(C2=C(c3ccc(Cl)cc3Cl)C(=O)NC2=O)c2ccccc21 [SB-216763] |  |  |  |  |  |  | IC50 (NCI-H1975): > 10 µM |
| Nc1ccn([C@@H]2O[C@H](CO)[C@@H](O)[C@@H]2O)c(=O)n1 [CYTARABINE] |  |  |  |  |  |  | IC50 (NCI-H1975): > 2 µM |
| COC(=O)CNC(=O)C(=O)OC |  | 553 | > 4000 | 552 | > 4000 | 896 |  |
| C=C1C(=O)O[C@@H]2C3O[C@]3(C)CC/C=C(\C)CC[C@@H]12 (stereo not given in full) |  |  |  |  |  |  | IC50 (NCI-H250): > 5 µM; IC50 (NCI-H378): > 5 µM; IC50 (TC-YIK): > 5 µM |
| CCC1=C[C@@H]2CN(C1)Cc1c([nH]c3ccccc13)[C@@](C(=O)OC)(c1cc3c(cc1OC)N(C)[C@H]1[C@@](O)(C(=O)OC)[C@H](OC(C)=O)[C@]4(CC)C=CCN5CC[C@]31[C@@H]54)C2 [VINORELBINE] |  | > 0.064 | 0.00137 | 0.023 | 0.00714 | > 0.064 | IC50 (Caov-4): > 0.064 µM |
| CO[C@H]1C[C@@H]2CC[C@@H](C)[C@@](O)(O2)C(=O)C(=O)N2CCCC[C@H]2C(=O)O[C@H]([C@H](C)C[C@@H]2CC[C@@H](O)[C@H](OC)C2)CC(=O)[C@H](C)/C=C(\C)[C@@H](O)[C@@H](OC)C(=O)[C@H](C)C[C@H](C)/C=C/C=C/C=C/1C [SIROLIMUS] |  |  |  |  |  |  | IC50 (CP67-MEL): > 0.1 µM; IC50 (KP-N-RT-BM-1): > 0.1 µM; IC50 (TC-YIK): > 0.1 µM |
| CCC(=O)N1CCN(c2ccc(-n3c(=O)ccc4cnc5ccc(-c6cnc7ccccc7c6)cc5c43)cc2C(F)(F)F)CC1 [TORIN1] | 1.17 |  |  |  |  |  | IC50 (CP67-MEL): 0.0376 µM; IC50 (KP-N-RT-BM-1): > 1.2 µM |
| COc1cc([C@@H]2c3cc4c(cc3[C@@H](O[C@@H]3O[C@@H]5CO[C@@H](C)O[C@H]5[C@H](O)[C@H]3O)[C@H]3COC(=O)[C@H]23)OCO4)cc(OC)c1O [ETOPOSIDE] |  | > 16 | 0.265 | 1.71 | 1.47 | 7.89 | IC50 (Caov-4): > 16 µM |
| CNC(=O)c1cc(Oc2ccc(NC(=O)Nc3ccc(Cl)c(C(F)(F)F)c3)cc2)ccn1 [SORAFENIB] | > 4 |  |  |  |  |  | IC50 (CRO-AP2): > 4 µM |
| Cc1cc([C@@H](C)Nc2ccccc2C(=O)O)c2nc(N3CCOCC3)cc(=O)n2c1 [AZD-6482] |  | > 5.12 | > 5.12 | > 5.12 | 1.54 | > 5.12 | IC50 (Caov-4): > 5.12 µM; IC50 (SK-MEL-5): > 5.12 µM; IC50 (NCI-H1975): > 5.12 µM; IC50 (SK-MG-1): > 5.12 µM |
| CS(=O)(=O)CCNCc1ccc(-c2ccc3ncnc(Nc4ccc(OCc5cccc(F)c5)c(Cl)c4)c3c2)o1 [LAPATINIB] | > 2 |  |  |  |  |  |  |
| CN(C)C/C=C/C(=O)Nc1cc2c(Nc3ccc(F)c(Cl)c3)ncnc2cc1O[C@H]1CCOC1 [AFATINIB] |  |  |  |  |  |  | IC50 (NCI-H1975): > 0.5 µM |
| CN(c1ncccc1CNc1nc(Nc2ccc3c(c2)CC(=O)N3)ncc1C(F)(F)F)S(C)(=O)=O [PF-00562271] |  | > 2.56 | 0.487 | > 2.56 | 1.91 | > 2.56 | IC50 (Caov-4): > 2.56 µM |
| CC1=C2C[C@H]3[C@@H](CC=C4C[C@@H](O)CC[C@@]43C)[C@@H]2CC[C@]12O[C@@H]1C[C@H](C)CN[C@H]1[C@H]2C [CYCLOPAMINE] | > 16 |  |  |  |  |  |  |
| Cn1cncc1[C@@](N)(c1ccc(Cl)cc1)c1ccc2c(c1)c(-c1cccc(Cl)c1)cc(=O)n2C [TIPIFARNIB] |  | 4.58 | 4.18 | 6.14 | > 16 | 0.181 |  |
| Cc1cnc(-c2cnc(NCCNc3ccc(C#N)cn3)nc2-c2ccc(Cl)cc2Cl)[nH]1 [LADUVIGLUSIB] |  | > 2.56 | > 2.56 | > 2.56 | > 2.56 | > 2.56 | IC50 (Caov-4): > 2.56 µM |
| O=C(NOCC1CC1)c1ccc(F)c(F)c1Nc1ccc(I)cc1Cl [CI-1040] |  |  |  |  |  |  | IC50 (NCI-H1975): 6.47 µM |
